Columns and labels:
[1] = molecular target: T1, thrombin (Homo sapiens, UniProt P00734); assay: Thrombin-inhibitory activity in plasma samples (ecarin-activated); format: biochemical; details: citrate plasma, ecarin activation, fluorogenic thrombin substrate; read at about 70% of maximum signal (about 12 min); in some cases means
Experimental: To determine the inhibition of thrombin in plasma samples, plasma prothrombinase is activated by ecarin. Thrombin activity and/or its inhibition by potential inhibitors is/are then measured fluorescently by addition of a substrate.
The substances to be tested are dissolved in various concentrations in dimethyl sulphoxide and diluted with water. In white 96-well flat-bottomed plates, 20 μl of substance dilution are mixed with 20 μl of ecarin solution (ecarin reagent, from Sigma E-0504, final concentration 20 mU per reaction) in Ca buffer (200 mM Hepes+560 mM sodium chloride+10 mM calcium chloride+0.4% PEG) or with 20 μl of Ca buffer (as unstimulated control). Furthermore, 20 μl of fluorogenic thrombin substrate (from Bachem 1-1120, final concentration 50 μmol/l) and 20 μl of citrate plasma (from Octapharma) are added, and the mixture is homogenized well. The plate is measured in a SpectraFluorplus Reader using a 360 nm excitation filter and a 465 nm emission filter every minute over 20 minutes. […] Representative activity data from this test are given in Table 2 below (in some cases as means of individual determinations): […]

[2] = molecular target: T1, thrombin; assay: Measurement of the thrombin inhibition in buffer; format: biochemical; details: human thrombin 0.06 nmol/l in Tris buffer pH 7.4, 22° C., substrate Boc-Asp(OBzl)-Pro-Arg-AMC; in some cases means of individual determinations
Experimental: To determine the thrombin inhibition of the substances listed above, a biochemical test system is constructed in which the conversion of a thrombin substrate is used for determining the enzymatic activity of human thrombin. Here, thrombin cleaves aminomethylcoumarin, which is measured fluorescently, from the peptic substrate. The determinations are carried out in microtitre plates.
Substances to be tested are dissolved in various concentrations in dimethyl sulphoxide and incubated for 15 min with human thrombin (0.06 nmol/l dissolved in 50 mmol/l of Tris buffer [C,C,C-tris(hydroxymethyl)aminomethane], 100 mmol/l of sodium chloride, 0.1% BSA [bovine serum albumin], pH 7.4) at 22° C. The substrate (5 μmol/l Boc-Asp(OBzl)-Pro-Arg-AMC from Bachem) is then added. After 30 min of incubation, the sample is excited at a wavelength of 360 nm and the emission is measured at 460 nm. The measured emissions of the test mixtures with test substance are compared to the control mixtures without test substance (only dimethyl sulphoxide instead of test substance in dimethyl sulphoxide) and IC50 values are calculated from the concentration/activity relationships. Representative activity data from this test are given in Table 1 below (in some cases as means of individual determinations): […]

| IC50 [1] [nM] | IC50 [2] [nM] | SMILES |
| --- | --- | --- |
| – | 88 | COc1cc(C(=O)N2CC(C)OCC2(C)C)cn2nc(NCc3cccc(Cl)c3)nc12 (racemic) [Example 26] |
| 15 | 11 | COc1cc(C(=O)N2CC(C)(CCO)OCC2(C)C)cn2nc(NCc3cccc(Cl)c3)nc12 (racemic) [Example 31, {2-[(3-Chlorobenzyl)amino]-8-methoxy[1,2,4]triazolo[1,5-a]pyridin-6-yl}[2-(2-hydroxyethyl)-2,5,5-trimethylmorpholin-4-yl]methanone] |
| 54 | 37 | COc1cc(C(=O)N2CC(C)OCC2CC(C)(C)O)cn2nc(NCc3cccc(Cl)c3)nc12 (racemic) [Example 42, {2-[(3-Chlorobenzyl)amino]-8-methoxy[1,2,4]triazolo[1,5-a]pyridin-6-yl}[5-(2-hydroxy-2-methylpropyl)-2-methylmorpholin-4-yl]methanone] |
| 33 | 34 | COc1cc(C(=O)N2CC3CCN3C(=O)C2C)cn2nc(N[C@H](C)c3cccc(Cl)c3)nc12 (single isomer, unassigned) [Example 1] |
| 70 | 70 | COc1cc(C(=O)N2CC(C)OCC2C2CC(O)C2)cn2nc(NCc3cccc(Cl)c3)nc12 (single isomer, unassigned) [Example 3, {2-[(3-Chlorobenzyl)amino]-8-methoxy[1,2,4]triazolo[1,5-a]pyridin-6-yl}[5-(3-hydroxycyclobutyl)-2-methylmorpholin-4-yl]methanone] |
| – | 81 | COc1cc(C(=O)N2CC(C)OCC2CC(C)(C)O)cn2nc(NCc3cccc(Cl)c3)nc12 (single isomer, unassigned) [Example 43, {2-[(3-Chlorobenzyl)amino]-8-methoxy[1,2,4]triazolo[1,5-a]pyridin-6-yl}[5-(2-hydroxy-2-methylpropyl)-2-methylmorpholin-4-yl]methanone] |
| – | 29 | COc1cc(C(=O)N2CC(C)OCC2CC(C)(C)O)cn2nc(NCc3cccc(Cl)c3)nc12 (single isomer, unassigned) [Example 44, {2-[(3-Chlorobenzyl)amino]-8-methoxy[1,2,4]triazolo[1,5-a]pyridin-6-yl}[5-(2-hydroxy-2-methylpropyl)-2-methylmorpholin-4-yl]methanone] |
| – | 1200 | COc1cc(C(=O)N2CC(C)(CCO)OCC2CF)cn2nc(NCc3cccc(Cl)c3)nc12 (single isomer, unassigned) [Example 52, {2-[(3-Chlorobenzyl)amino]-8-methoxy[1,2,4]triazolo[1,5-a]pyridin-6-yl}[5-(fluoromethyl)-2-(2-hydroxyethyl)-2-methylmorpholin-4-yl]methanone] |
| 39 | – | [2H]C([2H])(C)O[C@@H]1CC(CO)N(C(=O)c2cc(OC)c3nc(NCc4cccc(Cl)c4)nn3c2)C1 (stereo partly drawn) [Example 73, {2-[(3-Chlorobenzyl)amino]-8-methoxy[1,2,4]triazolo[1,5-a]pyridin-6-yl}[(4R)-4-[(1,1-^2H2)ethyloxy]-2-(hydroxymethyl)pyrrolidin-1-yl]methanone] |

The next lines start with the compound.

| SMILES | IC50 [1] [nM] | IC50 [2] [nM] |
| --- | --- | --- |
| COc1cc(C(=O)N2CC(C)(C)OCC2(C)CO)cn2nc(NCc3cccc(Cl)c3)nc12 (racemic) [Example 8, {2-[(3-Chlorobenzyl)amino]-8-methoxy[1,2,4]triazolo[1,5-a]pyridin-6-yl}[5-(hydroxymethyl)-2,2,5-trimethylmorpholin-4-yl]methanone] | 29 | 20 |
| COCC1COC(C)(C)CN1C(=O)c1cc(OC)c2nc(NCc3cccc(Cl)c3)nn2c1 (racemic) [Example 11, {2-[(3-Chlorobenzyl)amino]-8-methoxy[1,2,4]triazolo[1,5-a]pyridin-6-yl}[5-(methoxymethyl)-2,2-dimethylmorpholin-4-yl]methanone] | 64 | 63 |
| COc1cc(C(=O)N2CC(C)(C)OCC2CF)cn2nc(NCc3cccc(Cl)c3)nc12 (racemic) [Example 12, {2-[(3-Chlorobenzyl)amino]-8-methoxy[1,2,4]triazolo[1,5-a]pyridin-6-yl}[5-(fluoromethyl)-2,2-dimethylmorpholin-4-yl]methanone] | 56 | 35 |
| COc1cc(C(=O)N2CC(C)OCC2CCO)cn2nc(NCc3cccc(Cl)c3)nc12 (racemic) [Example 15, {2-[(3-Chlorobenzyl)amino]-8-methoxy[1,2,4]triazolo[1,5-a]pyridin-6-yl}[5-(2-hydroxyethyl)-2-methylmorpholin-4-yl]methanone] | 75 | 53 |
| COc1cc(C(=O)N2CC(C)OCC2C2CC(O)C2)cn2nc(NCc3cccc(Cl)c3)nc12 (single isomer, unassigned) [Example 4, {2-[(3-Chlorobenzyl)amino]-8-methoxy[1,2,4]triazolo[1,5-a]pyridin-6-yl}[5-(3-hydroxycyclobutyl)-2-methylmorpholin-4-yl]methanone] | 23 | 9.4 |
| COc1cc(C(=O)N2CC(C)OC[C@H]2C)cn2nc(NC(CF)c3cccc(Cl)c3)nc12 (single isomer, unassigned) [Example 5] | 87 | – |
| COc1cc(C(=O)N2CC(C)(CCO)OC[C@H]2C)cn2nc(NCc3cccc(Cl)c3)nc12 (single isomer, unassigned) [Example 6] | 25 | 8.7 |
| COc1cc(C(=O)N2CC(C)(C)OCC2CF)cn2nc(NCc3cccc(Cl)c3)nc12 (single isomer, unassigned) [Example 13, {2-[(3-Chlorobenzyl)amino]-8-methoxy[1,2,4]triazolo[1,5-a]pyridin-6-yl}[5-(fluoromethyl)-2,2-dimethylmorpholin-4-yl]methanone] | – | 420 |
| COc1cc(C(=O)N2CC(C)OCC2(C)C)cn2nc(NCc3cccc(Cl)c3)nc12 (single isomer, unassigned) [Example 28] | – | 180 |
| COc1cc(C(=O)N2CC(C)(CCO)OCC2(C)C)cn2nc(NCc3cccc(Cl)c3)nc12 (single isomer, unassigned) [Example 32, {2-[(3-Chlorobenzyl)amino]-8-methoxy[1,2,4]triazolo[1,5-a]pyridin-6-yl}[2-(2-hydroxyethyl)-2,5,5-trimethylmorpholin-4-yl]methanone] | – | 230 |
| COc1cc(C(=O)N2CC(C)(CC(C)O)OCC2(C)C)cn2nc(NCc3cccc(Cl)c3)nc12 (single isomer, unassigned) [Example 38, {2-[(3-Chlorobenzyl)amino]-8-methoxy[1,2,4]triazolo[1,5-a]pyridin-6-yl}[2-(2-hydroxypropyl)-2,5,5-trimethylmorpholin-4-yl]methanone] | – | 2800 |
| COc1cc(C(=O)N2CC(C)(C)OCC2CC(C)O)cn2nc(NCc3cccc(Cl)c3)nc12 (single isomer, unassigned) [Example 46, {2-[(3-Chlorobenzyl)amino]-8-methoxy[1,2,4]triazolo[1,5-a]pyridin-6-yl}[5-(2-hydroxypropyl)-2,2-dimethylmorpholin-4-yl]methanone] | – | 190 |
| COc1cc(C(=O)N2CC(C)(C)OCC2CC(C)O)cn2nc(NCc3cccc(Cl)c3)nc12 (single isomer, unassigned) [Example 47, {2-[(3-Chlorobenzyl)amino]-8-methoxy[1,2,4]triazolo[1,5-a]pyridin-6-yl}[5-(2-hydroxypropyl)-2,2-dimethylmorpholin-4-yl]methanone] | – | 180 |
| COc1cc(C(=O)N2CC(C)(C)OCC2CC(C)O)cn2nc(NCc3cccc(Cl)c3)nc12 (single isomer, unassigned) [Example 48, {2-[(3-Chlorobenzyl)amino]-8-methoxy[1,2,4]triazolo[1,5-a]pyridin-6-yl}[5-(2-hydroxypropyl)-2,2-dimethylmorpholin-4-yl]methanone] | – | 39 |
| COc1cc(C(=O)N2CC(C)(CCO)OCC2CF)cn2nc(NCc3cccc(Cl)c3)nc12 (single isomer, unassigned) [Example 51, {2-[(3-Chlorobenzyl)amino]-8-methoxy[1,2,4]triazolo[1,5-a]pyridin-6-yl}[5-(fluoromethyl)-2-(2-hydroxyethyl)-2-methylmorpholin-4-yl]methanone] | – | 3500 |
| COc1cc(C(=O)N2CC(C)(CC(C)O)OCC2CF)cn2nc(NCc3cccc(Cl)c3)nc12 (single isomer, unassigned) [Example 57, {2-[(3-Chlorobenzyl)amino]-8-methoxy[1,2,4]triazolo[1,5-a]pyridin-6-yl}[5-(fluoromethyl)-2-(2-hydroxypropyl)-2-methylmorpholin-4-yl]methanone] | – | 1000 |
